Patent publication EP3818828A1 (priority 2019, dated 2021)
Converted amounts (≈) assume the structure as drawn. Like-named read-outs stand apart in the source and are kept apart here.

How the values were obtained:
Type in all cases: cell-based
Phytophthora infestans [1] = details: Phytophthora infestas; 1 mg/mL
[2] = system: Botryosphaeria berengeriana; test: Ex vivo mycelial growth inhibition, growth rate method; details: 1 mg/mL
Description: (§1) 3-(3',4'-methylenedioxy phenyl)-N-n-propyl acrylamide (at a purity of 99%), 3-(3',4'-methylenedioxy phenyl)-piperidine acrylate (at a purity of 99%), the control agents, 96.5% of chlorothalonil technical (non-systemic broad-spectrum fungicide), 97.2% of carbendazim technical (systemic broad-spectrum fungicide), 97.0% of procymidone technical (systemic fungicide), 96.0% of dimethomorphtechnical ((E,Z)-4-[3-(4-chlorphenyl)3-(3,4-dimethoxy phenyl)acryloyl]morpholine, systemic fungicide), 97.0% of azoxystrobin technical (systemic broad-spectrum fungicide).
(§2) The inhibition of samples for testing on the mycelial growth of plant pathogenic fungi for testing is determined with a growth rate method. 3-(3',4'-methylenedioxy phenyl)-N-n-propyl acrylamide, 3-(3',4'-methylenedioxy phenyl)-piperidine acrylate and five control agents are dissolved with dimethyl sulfoxide (DMSO), then formulated at 5-7 concentrations of different gradients for test following the trial test results, with the same concentration of DMSO as the control solvent, each treatment in triplicate. Fungal cakes with a diameter of 4 mm are taken from the edge of the colony, inoculated into the center of a PDA plate containing different agents of different concentrations and the DMSO control, with one piece of fungal cake inoculated in each plate (with a diameter of […]), and incubated in a constant temperature incubator at a temperature of 22±1.5°C. 7 days later (10-20 days may be needed for some pathogenic fungi), the diameter of the colony is measured with a cross over method according to the mycelial growth profile of the control pathogenic fungi, then the inhibition rate of mycelial growth is calculated.
(§3) The computational formula is as below: the inhibition rate of mycelial growth (%) = [(the diameter of the control colony - the diameter of the treated colony)/the diameter of the control colony] × 100.
(§4) The inhibition results of each agent at a concentration of 1 mg/mL on the mycelial growth of plant pathogenic fungi are shown in Tables 1 and 2.

[3] = system: Botryosphaeriana berengeriana; test: as above; details: 1 mg/mL
Description: as §1, §2, §3, §4

Botrytis cinerea [4] = test: as above; details: 1 mg/mL
Description: as §1, §2, §3, §4

C. gossypii = test: as above; details: 1 mg/mL
Description: as §1, §2, §3, §4

Colletotrichum capsici [5] = test: as above; details: 1 mg/mL
Description: as §1, §2, §3, §4

Coniella diplodiella = test: as above; details: 1 mg/mL
Description: as §1, §2, §3, §4

Exserohilum turcicum [6] = test: as above; details: 1 mg/mL
Description: as §1, §2, §3, §4

F. oxysporum f. sp. lini = test: as above; details: 1 mg/mL
Description: as §1, §2, §3, §4

[7] = system: F. oxysporum f. sp. vasinfectum; test: as above; details: 1 mg/mL
Description: as §1, §2, §3, §4

F. verticillioide = test: as above; details: 1 mg/mL
Description: as §1, §2, §3, §4

[8] = system: Gaeumannomyces graminis var. graminis and G. graminis var. tritici; test: as above; details: 1 mg/mL
Description: as §1, §2, §3, §4

Mycosphaerlla melonis = test: as above; details: 1 mg/mL
Description: as §1, §2, §3, §4

Phytophthora capsici = test: as above; details: Phytophthora capsici; 1 mg/mL
Description: as §1, §2, §3, §4

Pythium aphanidermatum = test: as above; details: 1 mg/mL
Description: as §1, §2, §3, §4

Rhizoctonia solani = test: as above; details: Rhizoctonia solani; 1 mg/mL
Description: as §1, §2, §3, §4

Sclerotinia sclerotiorum [9] = test: as above; details: 1 mg/mL
Description: as §1, §2, §3, §4

Thanatephorus cucumeris = test: as above; details: 1 mg/mL
Description: as §1, §2, §3, §4

Valsa mali [10] = test: as above; details: 1 mg/mL
Description: as §1, §2, §3, §4

Fusarium graminearum [11] = test: microbe, parasite or virus in culture
F. graminearum [12] = test: microbe, parasite or virus in culture
Pyricularia grisea = test: microbe, parasite or virus in culture
Phytophthora infestans [13] = test: microbe, parasite or virus in culture; details: 1 mg/mL
Botrytis cinerea [14] = test: Toxicity determination (EC50) on mycelial growth, growth rate method
Description: as §2
(§5) 3-(3',4'-methylenedioxy phenyl)-piperidine acrylate, the control agents 96.5% of chlorothalonil technical and 97.0% of procymidone technical. Agents for testing and the control agents chlorothalonil and procymidone are treated at 5-8 concentrations of different gradients on the basis of preliminary tests to ensure that the inhibition rates for treatments at all the concentrations are between 10% and 90%.
(§6) For specific determination methods, with reference to Embodiment 1. The concentration of active ingredients in the culture medium is used as the testing concentration to calculate the toxic regression equation (Y=bx+a) and the median inhibition concentration EC50, 95% confidence limit, and relative toxicity. Relative toxicity (compared to chlorothalonil) = EC50 of chlorothalonil / EC50 of 3-(3',4'-methylenedioxy phenyl)-piperidine acrylate, and relative toxicity (compared to procymidone) = EC50 of procymidone / EC50 of 3-(3',4'-methylenedioxy phenyl)-piperidine acrylate.

Colletotrichum capsici [15] = test: as above
Description: as §2, §5, §6

Exserohilum turcicum [16] = test: as above
Description: as §2, §5, §6

Sclerotinia sclerotiorum [17] = test: as above
Description: as §2, §5, §6

Valsa mali [18] = test: as above
Description: as §2, §5, §6

Fusarium graminearum [19] = test: microbe, parasite or virus in culture; remark: listed apart in the source
F. graminearum [20] = test: microbe, parasite or virus in culture; remark: listed apart in the source
Magnaporthe grisea = test: microbe, parasite or virus in culture
Phytophthora infestans [21] = test: microbe, parasite or virus in culture
[22] = EC50 of chlorothalonil / EC50 of agent
[23] = EC50 of procymidone / EC50 of agent
[24] = median inhibition concentration

## CC12CC1(C)C(=O)N(c1cc(Cl)cc(Cl)c1)C2=O (centres unmarked) [Procymidone, procymidone]
Phytophthora infestans [1]
  Average Diameter of the Colony: 0.80 cm
[2]
  Average Diameter of the Colony: 0.15 cm
  inhibition at 1000 µg/mL: 97.8%
[3]
  Average Diameter of the Colony: 0.20 cm
  inhibition at 1000 µg/mL: 96.5%
Botrytis cinerea [4]
  Average Diameter of the Colony: 1.74 cm
  inhibition at 1000 µg/mL: 76.8%
C. gossypii; C. gossypii
  Average Diameter of the Colony: 1.62 cm
C. gossypii; Colletotrichum gossypii, C. cossypii, read-out: Inhibition Rate
  inhibition at 1000 µg/mL: 70%
Colletotrichum capsici [5]
  Average Diameter of the Colony: 1.19 cm
Colletotrichum capsici [5]; Colletotrichum truncatum
  inhibition at 1000 µg/mL: 82.5%
Coniella diplodiella
  Average Diameter of the Colony: 0.06 cm
  inhibition at 1000 µg/mL: 99.1%
Exserohilum turcicum [6]
  Average Diameter of the Colony: 0.24 cm
  inhibition at 1000 µg/mL: 96.1%
F. oxysporum f. sp. lini
  Average Diameter of the Colony: 6.33 cm
F. oxysporum f. sp. lini; Fusarium oxysporum
  inhibition at 1000 µg/mL: 29.7%
[7]
  Average Diameter of the Colony: 2.57 cm
[7]; Fusarium oxysporum
  inhibition at 1000 µg/mL: 64.5%
F. verticillioide
  Average Diameter of the Colony: 2.57 cm
  inhibition at 1000 µg/mL: 24%
[8]
  Average Diameter of the Colony: 2.16 cm
  inhibition at 1000 µg/mL: 69.8%
Mycosphaerlla melonis
  Average Diameter of the Colony: 0.24 cm
  inhibition at 1000 µg/mL: 97.2%
Phytophthora capsici
  Average Diameter of the Colony: 5.10 cm
  inhibition at 1000 µg/mL: 3.77%
Pythium aphanidermatum
  Average Diameter of the Colony: 6.20 cm
  inhibition at 1000 µg/mL: 7.46%
Rhizoctonia solani
  Average Diameter of the Colony: 0.00 cm
  inhibition at 1000 µg/mL: 100%
Sclerotinia sclerotiorum [9]
  Average Diameter of the Colony: 0.00 cm
  inhibition at 1000 µg/mL: 100%
Thanatephorus cucumeris
  Average Diameter of the Colony: 0.54 cm
  inhibition at 1000 µg/mL: 93.7%
Valsa mali [10]
  Average Diameter of the Colony: 0.83 cm
Valsa mali [10]; Cytospora mali
  inhibition at 1000 µg/mL: 89%
Fusarium graminearum [11]; 1 mg/mL
  Average Diameter of the Colony: 2.26 cm
Fusarium graminearum [11]; read-out: Inhibition Rate
  inhibition at 1000 µg/mL: 57.7%
F. graminearum [12]; F. graminearum, 1 mg/mL
  Average Diameter of the Colony: 3.57 cm
F. graminearum [12]; Fusarium graminearum, read-out: Inhibition Rate
  inhibition at 1000 µg/mL: 58.5%
Pyricularia grisea; 1 mg/mL
  Average Diameter of the Colony: 4.63 cm
Pyricularia grisea; read-out: Inhibition Rate
  inhibition at 1000 µg/mL: 48.6%
Phytophthora infestans [13]
  Average Diameter of the Colony: 0.00 cm
Botrytis cinerea [14]; [22]
  Relative Toxicity (Compared to Chlorothalonil): 2.24
Botrytis cinerea [14]; [23]
  Relative Toxicity (Compared to Procymidone): 1.00
Botrytis cinerea [14]; [24]
  EC50: 78.9 µg/mL (≈ 278 µM)
Colletotrichum capsici [15]; Colletotrichum truncatum, median inhibition concentration, read-out: EC50
  EC50: 518 µg/mL (≈ 1820 µM)
Colletotrichum capsici [15]; [22]
  Relative Toxicity (Compared to Chlorothalonil): 0.78
Colletotrichum capsici [15]; [23]
  Relative Toxicity (Compared to Procymidone): 1.00
Exserohilum turcicum [16]; [22]
  Relative Toxicity (Compared to Chlorothalonil): 3.92
Exserohilum turcicum [16]; [23]
  Relative Toxicity (Compared to Procymidone): 1.00
Exserohilum turcicum [16]; median inhibition concentration, read-out: EC50
  EC50: 105 µg/mL (≈ 369 µM)
Sclerotinia sclerotiorum [17]; [22]
  Relative Toxicity (Compared to Chlorothalonil): 0.89
Sclerotinia sclerotiorum [17]; [23]
  Relative Toxicity (Compared to Procymidone): 1.00
Sclerotinia sclerotiorum [17]; [24]
  EC50: 70.6 µg/mL (≈ 248 µM)
Valsa mali [18]; [22]
  Relative Toxicity (Compared to Chlorothalonil): 0.98
Valsa mali [18]; [23]
  Relative Toxicity (Compared to Procymidone): 1.00
Valsa mali [18]; [24]
  EC50: 427.3 µg/mL (≈ 1500 µM)
Fusarium graminearum [19]; [22]
  Relative Toxicity (Compared to Chlorothalonil): 3.27
Fusarium graminearum [19]; [23]
  Relative Toxicity (Compared to Procymidone): 1.00
Fusarium graminearum [19]; [24]
  EC50: 144 µg/mL (≈ 505 µM)
F. graminearum [20]; [22]
  Relative Toxicity (Compared to Chlorothalonil): 0.27
F. graminearum [20]; [23]
  Relative Toxicity (Compared to Procymidone): 1.00
F. graminearum [20]; Fusarium graminearum, median inhibition concentration
  EC50: 850 µg/mL (≈ 2990 µM)
Magnaporthe grisea; [22]
  Relative Toxicity (Compared to Chlorothalonil): 1.42
Magnaporthe grisea; [23]
  Relative Toxicity (Compared to Procymidone): 1.00
Magnaporthe grisea; Pyricularia oryzae, median inhibition concentration
  EC50: 308 µg/mL (≈ 1080 µM)
Phytophthora infestans [21]; [22]
  Relative Toxicity (Compared to Chlorothalonil): 0.15
Phytophthora infestans [21]; [23]
  Relative Toxicity (Compared to Procymidone): 1.00
Phytophthora infestans [21]; [24]
  EC50: 778 µg/mL (≈ 2740 µM)
